Legend:
[1] = high doses for local anesthesia; cited from earlier work
[2] = off-label patient trial, oromucosal/sublingual formulation; format: in vivo, human
Method: The formulation of the invention was used “off-label” to treat a number of patients to determine its effect as set out in Example 2.
In the Netherlands, 22 patients were treated with the formulation of Example 1a as follows: […]
10 patients had COVID-19 symptoms (and were positive and were seen by their general practitioner). All 10 patients presented with early signs of respiratory distress; tachypnea (more than 30 breaths per minute), high fever and dry cough and a decreased Sp02<90.
6 patients had post-COVID respiratory complaints. They were experiencing long-term complaints, ranging from coughing, fatigue and shortness of breath to anxiety and physical limitations.
6 patients suffered with various autoimmune diseases as follows: • 1 patient had rheumatoid arthritis. • 1 patient had scleroderma; • 1 patient had dermatomyositis; • 1 patient had morbus Parkinson; • 2 patients had psoriasis.
All patients were given the formulation as described in Example 1a above, up to 6 times a day, for up to 2 weeks.

CCN(CC)CC(=O)Nc1c(C)cccc1C [lidocaine]
dose at which methemoglobinemia can occur [1]: 4-5 mg/kg bodyweight
response of COVID-19 patients with early signs of respiratory distress ([2]; 10 patients, sublingual): responded well
effective adult unit dose ([2]; delivered oromucosally or sublingually, 4-6 times a day): 60 to 100 mg
